The values that follow come from patent US10377770B2 (Novartis AG, priority 2015, dated 2019).

pIC50: −log10 of the molar value.

This experiment concerns the target C-Raf FL (full length CRAF with Y340E and Y341E activating mutations, co-expressed with h14-3-3 zeta) (Homo sapiens (Human), UniProt P04049, Y340E/Y341E). Nature of the experiment: In vitro Raf activity determination, AlphaScreen p-MEK readout, c-Raf (C-Raf FL). In kind it is biochemical. As to conditions: c-Raf approximately 4 nM, ATP 1 μM, pre-incubation 60 minutes, reaction 1 hour. Put shortly: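 Phosphorylation of kinase-dead biotinylated MEK1 (~10 nM) by C-Raf FL (~4 nM) read by AlphaScreen luminescence with anti-phospho-MEK1/2 after EDTA stop. ATP was 1 μM, with a 1 h reaction at room temperature. Compounds were pre-incubated with enzyme and substrate for 60 min in Tris/MgCl2 buffer, pH 7.5.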
In general terms: Alpha assays give light when donor and acceptor beads are brought close together.

One may read the pIC50 as −log10 of the IC50, conventionally taken in molar units. Lower therefore signals a high IC50.

C-Raf FL (full length CRAF with Y340E and Y341E activating mutations, co-expressed with h14-3-3 zeta), sequence (P04049 whole entry Y340E/Y341E): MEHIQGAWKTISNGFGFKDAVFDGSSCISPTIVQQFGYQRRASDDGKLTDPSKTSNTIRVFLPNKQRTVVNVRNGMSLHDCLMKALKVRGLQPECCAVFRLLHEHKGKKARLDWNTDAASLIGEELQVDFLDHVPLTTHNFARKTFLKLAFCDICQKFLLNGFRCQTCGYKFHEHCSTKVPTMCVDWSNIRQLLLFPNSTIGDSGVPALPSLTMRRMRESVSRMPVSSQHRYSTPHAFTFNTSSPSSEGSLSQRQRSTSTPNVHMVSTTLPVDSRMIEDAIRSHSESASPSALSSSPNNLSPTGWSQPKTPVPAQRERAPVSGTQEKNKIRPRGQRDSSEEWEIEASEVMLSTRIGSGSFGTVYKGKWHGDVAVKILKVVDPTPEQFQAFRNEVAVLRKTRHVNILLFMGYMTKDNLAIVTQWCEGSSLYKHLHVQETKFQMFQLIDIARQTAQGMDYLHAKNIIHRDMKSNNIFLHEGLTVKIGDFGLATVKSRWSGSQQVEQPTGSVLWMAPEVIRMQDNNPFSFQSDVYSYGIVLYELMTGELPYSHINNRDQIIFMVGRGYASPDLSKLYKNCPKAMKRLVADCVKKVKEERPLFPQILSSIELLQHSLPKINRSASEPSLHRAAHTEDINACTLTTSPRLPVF
C-Raf FL (full length CRAF with Y340E and Y341E activating mutations, co-expressed with h14-3-3 zeta), sequence (P63104 whole entry partner): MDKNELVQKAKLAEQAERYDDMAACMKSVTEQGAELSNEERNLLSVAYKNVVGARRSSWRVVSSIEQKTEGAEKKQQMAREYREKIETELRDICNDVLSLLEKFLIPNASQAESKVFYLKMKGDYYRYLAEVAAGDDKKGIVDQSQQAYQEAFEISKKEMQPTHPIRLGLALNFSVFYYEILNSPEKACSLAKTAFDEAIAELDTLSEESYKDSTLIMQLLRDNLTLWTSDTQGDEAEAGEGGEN

With `Cc1ncc(NC(=O)c2cccc(C(F)(F)F)c2)cc1-c1cnc2c(c1)N1CCOCC1C1(COC1)C2` (racemic) [Example 156, rac-N-(6-methyl-5-(2,4,4a,6-tetrahydro-1H-spiro[[1,4]oxazino[4,3-a][1,5]naphthyridine-5,3′-oxetan]-9-yl)pyridin-3-yl)-3-(trifluoromethyl)benzamide], the pIC50 is 10.32.

With `Cc1ccc(NC(=O)c2ccnc(C(C)(C)C#N)c2)cc1-c1ccc2c(c1)N1CCOCC1CC2O` (racemic) [Example 8, (rac)-2-(2-cyanopropan-2-yl)-N-(3-(6-hydroxy-1,2,4,4a,5,6-hexahydro-[1,4]oxazino[4,3-a]quinolin-9-yl)-4-methylphenyl)isonicotinamide], the pIC50 is 9.72.

`Cc1ccc(NC(=O)c2ccnc(C(F)(F)F)c2)cc1-c1cnc2c(c1)N1CCOCC1C(C)(C)C2O` (single isomer, unassigned) [Example 334, N-(3-(6-hydroxy-5,5-dimethyl-1,2,4,4a,5,6-hexahydro-[1,4]oxazino[4,3-a][1,5]naphthyridin-9-yl)-4-methylphenyl)-2-(trifluoromethyl)isonicotinamide] gave a pIC50 of 9.40.

For the compound `Cc1ccc(NC(=O)c2ccnc(C(F)(F)F)c2)cc1-c1ccc2c(c1)N1CCOC[C@@H]1C[C@@H]2O` [Example 5, N-(3-((4aS,6S)-6-hydroxy-1,2,4,4a,5,6-hexahydro-[1,4]oxazino[4,3-a]quinolin-9-yl)-4-methylphenyl)-2-(trifluoromethyl)isonicotinamide], the negative-log IC50 (pIC50) was 10.44.

`Cc1ncc(NC(=O)c2ccnc(C(C)(F)F)c2)cc1-c1ccc2c(c1)N1CCOC[C@H]1[C@](C)(C#N)C2` (racemic) [Example 87, (rac)-N-(5-(5-cyano-5-methyl-1,2,4,4a,5,6-hexahydro-[1,4]oxazino[4,3-a]quinolin-9-yl)-6-methylpyridin-3-yl)-2-(1,1-difluoroethyl)isonicotinamide]: the pIC50 was 10.66.

The compound `CCN1C(=O)C2CCOCCC2c2cc(-c3cc(NC(=O)c4ccnc(C(C)(C)F)c4)cnc3C)cnc21` (stereo not drawn) [Example 251, N-(5-((5a, 11b- trans)-7-ethyl-6-oxo-1,2,4,5,5a, 6,7,11b-octahydrooxepino [4,5-c[1,8]naphtliyridin-10-yl)-6-methylpyridin-3-yl)-2-(2-fluoropropan-2-yl)isonicotinamide] had a pIC50 of 9.70.

Regarding `CCN1C(=O)C[C@@H]2COCCN2c2cc(-c3cc(NC(=O)c4cncc(C(F)(F)F)c4)ccc3C)cnc21` [Example 328, (R)-N-(3-(7-ethyl-6-oxo-2,4,4a,5,6,7-hexahydro-1H-[1,4]oxazino[4,3-d]pyrido[2,3-b][1,4]diazepin-10-yl)-4-methylphenyl)-5-(trifluoromethyl) nicotinamide], the pIC50 is 10.00.

Regarding `Cc1ccc(NC(=O)c2cnnc(C(F)(F)F)c2)cc1-c1cc(F)c2c(c1)N1CCOC[C@@H]1[C@@](F)(CO)C2` [Example 428, N-(3-((4aR,5R)-5,7-difluoro-5-(hydroxymethyl)-1,2,4,4a,5,6-hexahydro-[1,4]oxazino[4,3-a]quinolin-9-yl)-4-methylphenyl)-6-(trifluoromethyl)pyridazine-4-carboxamide], the pIC50 is 10.00.

In the case of `CCC(=O)NC1CC2COCCN2c2cc(-c3cc(NC(=O)c4ccnc(C(F)(F)F)c4)ccc3C)cnc21` (racemic) [Example 172, rac-N-(4-methyl-3-(6-propionamido-1,2,4,4a,5,6-hexahydro-[1,4]oxazino[4,3-a][1,5]naphthyridin-9-yl)phenyl)-2-(trifluoromethyl)isonicotinamide], the pIC50 is 10.47.

`CNC(=O)C1Cc2ccc(-c3cc(NC(=O)c4ccnc(C(F)(F)F)c4)ccc3C)cc2N2CCOCC12` (racemic) [Example 66, (rac)-N-methyl-9-(2-methyl-5-(2-(trifluoromethyl)isonicotinamido)phenyl)-1,2,4,4a,5,6-hexahydro-[1,4]oxazino[4,3-a]quinoline-5-carboxamide]: the pIC50 was 9.96.

Take `Cc1ccc(NC(=O)c2ccnc(C(C)(C)F)c2)cc1-c1cnc2c(c1)N1CCOC[C@H]1C[C@H]2O` [Example 142, 2-(2-fluoropropan-2-yl)-N-(3-((4aR,6R)-6-hydroxy-1,2,4,4a,5,6-hexahydro-[1,4]oxazino[4,3-a][1,5]naphthyridin-9-yl)-4-methylphenyl)isonicotinamide]: the pIC50 is 10.68.

With `CCN1C(=O)[C@H]2[C@@H]3COC[C@@H]3[C@H]2c2cc(-c3cc(NC(=O)c4cccc(C(F)(F)F)c4)cnc3C)cnc21` [Example 275, N-(5-((6aR, 6bR, 9aR, 9bR)-5-ethyl-6-oxo-5,6,6a,6b,7,9,9a,9b-octahydrofuro[3′,4′: 3,4]cyclobuta[1,2-c][1,8]naphthyridin-2-yl)-6-methylpyridin-3-yl)-3-(trifluoromethyl) benzamide], the negative logarithm of the IC50 (pIC50) is 9.10.

`Cc1ccc(NC(=O)c2ccnc(C(C)(F)F)c2)cc1-c1ccc2c(c1)N1CCOC[C@]1(C)C[C@H]2O` (racemic) [Example 27]: the negative-log IC50 (pIC50) was 10.77.

`Cc1ccc(NC(=O)c2ccnc(C(C)(F)F)c2)cc1-c1ccc2c(c1)N1CCOC[C@H]1[C@@](C)(C#N)C2` (racemic) [Example 88, (rac)-N-(3-(5-cyano-5-methyl-1,2,4,4a,5,6-hexahydro-[1,4]oxazino[4,3-a]quinolin-9-yl)-4-methylphenyl)-2-(1,1-difluoroethyl)isonictinamide] showed a negative-log IC50 (pIC50) of 10.49.

For the compound `CCN1C(=O)[C@@H]2COCC[C@@]2(C)c2cc(-c3cc(NC(=O)c4ccnc(C(F)(F)F)c4)ccc3C)cnc21` (relative stereo) [Example 341, N-(3-((4a,10b-trans)-6-ethyl-10b-methyl-5-oxo-2,4,4a,5,6,10b-hexahydro-1H-pyrano[3,4-c][1,8]naphthyridin-9-yl)-4-methylphenyl)-2-(trifluoromethyl)isonicotinamide], the negative-log IC50 (pIC50) is 9.22.

Take `Cc1ncc(NC(=O)c2cccc(C(F)(F)F)c2)cc1-c1cc2c(nn1)[C@H](O)C[C@@H]1COCCN21` (racemic) [Example 47, (rac)-(trans)-N-(5-(5-hydroxy-5,6,6a,7,9,10-hexahydropyridazino[3′,4′:5,6]pyrido[2,1-c][1,4]oxazin-2-yl)-6-methylpyridin-3-yl)-3-(trifluoromethyl)benzamide]: the pIC50 was 10.14.

In turn, `Cc1ccc(NC(=O)c2ccnc(C(C)(F)F)c2)cc1-c1cnc2c(c1)N1CCOC[C@@H]1[C@@H](CO)C2` [Example 118, 2-(1,1-difluoroethyl)-N-(3-((4aS,5S)-5-(hydroxymethyl)-1,2,4,4a,5,6-hexahydro-[1,4]oxazino[4,3-a][1,5]naphthyridin-9-yl)-4-methylphenyl)isonicotinamide] had a pIC50 of 11.34.

Take `Cc1ccc(NC(=O)c2cc(C(F)(F)F)ccn2)cc1-c1cnc2c(c1)N1CCOC[C@H]1C[C@@H]2O` (racemic) [Example 147, rac-cis-N-(3-(6-hydroxy-1,2,4,4a,5,6-hexahydro-[1,4]oxazino[4,3-a][1,5]naphthyridin-9-yl)-4-methylphenyl)-4-(trifluoromethyl)picolinamide]: the negative logarithm of the IC50 (pIC50) was 11.59.

Take `Cc1ccc(NC(=O)c2cnnc(C(F)(F)F)c2)cc1-c1cnc2c(c1)N1CCOC[C@H]1C[C@H]2OCCO` [Example 512, N-(3-((4aR,6R)-6-(2-hydroxyethoxy)-1,2,4,4a,5,6-hexahydro-[1,4]oxazino[4,3-a][1,5]naphthyridin-9-yl)-4-methylphenyl)-6-(trifluorometh-yl)pyridazine-4-carboxamide]: the negative logarithm of the IC50 (pIC50) was 9.40.

The compound `CCN1C(=O)C2COCC[C@]2(C)c2cc(-c3cc(NC(=O)c4cncc(C(F)(F)F)c4)ccc3C)cnc21` (stereo in doubt) [Example 345, N-(3-((4a,10b-trans)-6-ethyl-10b-methyl-5-oxo-1,4,4a,5,6,10b-hexahydro-2H-pyrano[3,4-c][1,8]naphthyridin-9-yl)-4-methylphenyl)-5-(trifluoromethyl)nicotinamide] had a pIC50 of 9.10.

Regarding `Cc1ncc(NC(=O)c2ccnc(C(C)(F)F)c2)cc1-c1ccc2c(c1)N1CCOC[C@@H]1[C@](C)(C#N)C2` [Example 376, N-(5-((4aS,5R)-5-cyano-5-methyl-1,2,4,4a,5,6-hexahydro-[1,4]oxazino[4,3-a]quinolin-9-yl)-6-methylpyridin-3-yl)-2-(1,1-difluoroethyl)isonicotinamide], the pIC50 was 9.30.

Turning to `Cc1ccc(NC(=O)c2ccnc(C(C)(F)F)c2)cc1-c1cnc2c(c1)N1CCOC[C@H]1C[C@]2(C)O` (racemic) [Example 42, (rac)-(cis)-2-(1,1-difluoroethyl)-N-(3-(6-hydroxy-6-methyl-1,2,4,4a,5,6-hexahydro-[1,4]oxazino[4,3-a][1,5]naphthyridin-9-yl)-4-methylphenyl)isonicotinamide], the negative-log IC50 (pIC50) is 10.82.

In the case of `Cc1ccc(NC(=O)c2cncc(C(F)(F)F)c2)cc1-c1cc(F)c2c(c1)N1CCOC[C@H]1[C@@](F)(CO)C2` [Example 434, N-(3-((4aS,5R)-5,7-difluoro-5-(hydroxymethyl)-1,2,4,4a,5,6-hexahydro-[1,4]oxazino[4,3-a]quinolin-9-yl)-4-methylphenyl)-5-(trifluoromethyl)nicotinamide], the negative logarithm of the IC50 (pIC50) is 8.89.

Consider `CCN1C(=O)[C@H]2[C@@H]3COC[C@@H]3[C@H]2c2cc(-c3cc(NC(=O)c4ccnc(C(F)(F)F)c4F)ccc3C)cnc21` [Example 276, N-(3-((6aR, 6bR, 9aR, 9bR)-5-ethyl-6-oxo-5,6,6a,6b,7,9,9a,9b-octahydrofuro[3′,4′: 3,4]cyclobuta[1,2-c][1,8]naphthyridin-2-yl)-4-methylphenyl)-3-fluoro-2-(trifluoromethyl) isonicotinamide], for which the negative logarithm of the IC50 (pIC50) was 9.30.
